The values below come from article PMC10569036.

The nature of series [1]: shake flask on a mixture of 185; loss from the water phase only; LC-Orbitrap peak areas. The note with it: room.
Series [2] is described as follows: shake flask on a mixture of 185; loss from the water phase only; LC-QTOF peak areas. The note with it: room.

Take `CCCCNS(=O)(=O)c1ccc(C)cc1`: in series [1], the “log partition 1-octanol / HPLC water, unbuffered, traces of methanol / DMSO” value (“log partition 1-octanol / HPLC water” below) is recorded as 1.509 log10; the “log partition butyl acetate / HPLC water, unbuffered, traces of methanol / DMSO” value (from here on “log partition butyl acetate / HPLC water”) was 1.21 log10; the “log partition chloroform / HPLC water, unbuffered, traces of methanol / DMSO” value (shortened to “log partition chloroform / HPLC water”) worked out at 1.689 log10; the “log partition cyclohexane / HPLC water, unbuffered, traces of methanol / DMSO” value (“log partition cyclohexane / HPLC water” for short) is 0.5819 log10. In series [1], the “log partition dichloromethane / HPLC water, unbuffered, traces of methanol / DMSO” value was found to be 1.83 log10; the “log partition n-hexane / HPLC water, unbuffered, traces of methanol / DMSO” value (“log partition n-hexane / HPLC water” for short) is listed as 0.2985 log10; the “log partition n-octane / HPLC water, unbuffered, traces of methanol / DMSO” value (from here on “log partition n-octane / HPLC water”) stood at 0.4632 log10; the “log partition n-undecane / HPLC water, unbuffered, traces of methanol / DMSO” value (from here on “log partition n-undecane / HPLC water”) was 0.151 log10. In series [1], the “log partition oleylalcohol / HPLC water, unbuffered, traces of methanol / DMSO” value (“log partition oleylalcohol / HPLC water” below) is reported as 0.9177 log10 and the “log partition toluene / HPLC water, unbuffered, traces of methanol / DMSO” value (“log partition toluene / HPLC water” for short) worked out at 1.122 log10. In series [2], the “log partition 1-octanol / HPLC water” value is listed as 1.761 log10; the “log partition butyl acetate / HPLC water” value stood at 1.471 log10; the “log partition chloroform / HPLC water” value worked out at 1.664 log10; the “log partition cyclohexane / HPLC water” value was found to be 0.988 log10. In series [2], the “log partition dichloromethane / HPLC water, unbuffered, traces of methanol / DMSO” value is 1.556 log10; the “log partition n-hexane / HPLC water” value worked out at 0.6036 log10; the “log partition n-octane / HPLC water” value came out at 0.3273 log10; the “log partition n-undecane / HPLC water” value worked out at 0.4324 log10. Also, in series [2], the “log partition oleylalcohol / HPLC water” value was 1.505 log10 and the “log partition toluene / HPLC water” value came out at 1.679 log10.
On to `Cc1ccc([N+](=O)[O-])cc1S(=O)(=O)O`, for which, in series [1], the “log partition 1-octanol / HPLC water” value is listed as 1.274 log10; the “log partition butyl acetate / HPLC water” value is listed as 1.798 log10; the “log partition chloroform / HPLC water” value turned out to be 2.228 log10; the “log partition cyclohexane / HPLC water” value is recorded as 0.6608 log10. Also, in series [1], the “log partition dichloromethane / HPLC water, unbuffered, traces of methanol / DMSO” value amounted to 2.4 log10; the “log partition n-hexane / HPLC water” value is listed as 0.3087 log10; the “log partition n-octane / HPLC water” value was 0.3589 log10; the “log partition n-undecane / HPLC water” value was determined as 0.261 log10. In addition, in series [1], the “log partition oleylalcohol / HPLC water” value turned out to be 0.9359 log10 and the “log partition toluene / HPLC water” value is 1.703 log10. In series [2], the “log partition 1-octanol / HPLC water” value was found to be 2.399 log10; the “log partition butyl acetate / HPLC water” value was determined as 2.641 log10; the “log partition chloroform / HPLC water” value worked out at 2.843 log10; the “log partition cyclohexane / HPLC water” value worked out at 0.5479 log10. In series [2], the “log partition dichloromethane / HPLC water, unbuffered, traces of methanol / DMSO” value is on record as 2.477 log10; the “log partition n-hexane / HPLC water” value is recorded as 0.3824 log10; the “log partition n-octane / HPLC water” value is 0.4393 log10; the “log partition n-undecane / HPLC water” value is recorded as 0.4122 log10. For the same compound, in series [2], the “log partition oleylalcohol / HPLC water” value amounted to 2.608 log10 and the “log partition toluene / HPLC water” value was 2.304 log10.
Take `O=C(c1ccccc1)c1ccc(O)cc1O`: in series [1], the “log partition 1-octanol / HPLC water” value is recorded as 1.665 log10; the “log partition butyl acetate / HPLC water” value is 2.111 log10; the “log partition chloroform / HPLC water” value amounted to 0.8448 log10; the “log partition cyclohexane / HPLC water” value is recorded as -0.5373 log10. Further, in series [1], the “log partition dichloromethane / HPLC water, unbuffered, traces of methanol / DMSO” value was found to be 1.668 log10; the “log partition n-hexane / HPLC water” value is given as -1.173 log10; the “log partition n-octane / HPLC water” value was -0.7644 log10; the “log partition n-undecane / HPLC water” value is recorded as -1.267 log10. Also, in series [1], the “log partition oleylalcohol / HPLC water” value is 1.444 log10 and the “log partition toluene / HPLC water” value was 0.1696 log10. Further, in series [2], the “log partition 1-octanol / HPLC water” value is given as 2.033 log10; the “log partition butyl acetate / HPLC water” value is recorded as 2.368 log10; the “log partition chloroform / HPLC water” value amounted to 1.568 log10; the “log partition cyclohexane / HPLC water” value is recorded as -0.7702 log10. For the same compound, in series [2], the “log partition dichloromethane / HPLC water, unbuffered, traces of methanol / DMSO” value is 1.235 log10; the “log partition n-hexane / HPLC water” value is on record as -0.7955 log10; the “log partition n-octane / HPLC water” value is -0.8875 log10; the “log partition n-undecane / HPLC water” value is recorded as -0.7905 log10. In series [2], the “log partition oleylalcohol / HPLC water” value was determined as 1.696 log10 and the “log partition toluene / HPLC water” value came to 1.076 log10.
Take `Oc1c(Cl)cc(Cl)c(Cl)c1Cc1c(O)c(Cl)cc(Cl)c1Cl`: in series [2], the “log partition 1-octanol / HPLC water” value was 3.536 log10; the “log partition butyl acetate / HPLC water” value worked out at 2.622 log10; the “log partition chloroform / HPLC water” value is listed as 2.343 log10; the “log partition cyclohexane / HPLC water” value came to 2.027 log10. For the same compound, in series [2], the “log partition dichloromethane / HPLC water, unbuffered, traces of methanol / DMSO” value is 1.996 log10; the “log partition n-hexane / HPLC water” value is recorded as 1.5 log10; the “log partition n-octane / HPLC water” value amounted to 1.932 log10; the “log partition n-undecane / HPLC water” value turned out to be 2.251 log10. Besides, in series [2], the “log partition oleylalcohol / HPLC water” value is reported as 2.088 log10 and the “log partition toluene / HPLC water” value was found to be 2.305 log10.
Consider `Oc1c(Cl)cc(Cl)cc1Sc1cc(Cl)cc(Cl)c1O`, for which, in series [2], the “log partition 1-octanol / HPLC water” value was determined as 0.7477 log10; the “log partition butyl acetate / HPLC water” value stood at 1.778 log10; the “log partition chloroform / HPLC water” value is 1.227 log10; the “log partition cyclohexane / HPLC water” value amounted to 1.174 log10. Besides, in series [2], the “log partition dichloromethane / HPLC water, unbuffered, traces of methanol / DMSO” value was found to be 1.541 log10; the “log partition n-hexane / HPLC water” value turned out to be 1.101 log10; the “log partition n-octane / HPLC water” value is recorded as 1.178 log10; the “log partition n-undecane / HPLC water” value amounted to 0.844 log10. Also, in series [2], the “log partition oleylalcohol / HPLC water” value amounted to 1.386 log10 and the “log partition toluene / HPLC water” value was found to be 1.7 log10.
As for `CO/C=C(/C(=O)OC)c1ccccc1Oc1cc(Oc2ccccc2C#N)ncn1`, in series [2], the “log partition 1-octanol / HPLC water” value is 2.62 log10; the “log partition butyl acetate / HPLC water” value stood at 3.136 log10; the “log partition chloroform / HPLC water” value is 2.817 log10; the “log partition cyclohexane / HPLC water” value is recorded as 1.291 log10. For the same compound, in series [2], the “log partition dichloromethane / HPLC water, unbuffered, traces of methanol / DMSO” value was determined as 2.944 log10; the “log partition n-hexane / HPLC water” value is 0.8262 log10; the “log partition n-octane / HPLC water” value worked out at 0.8047 log10; the “log partition n-undecane / HPLC water” value turned out to be 0.5559 log10. Moreover, in series [2], the “log partition oleylalcohol / HPLC water” value is on record as 2.323 log10 and the “log partition toluene / HPLC water” value was determined as 2.329 log10.
Take `O=S(=O)(O)C(F)(F)F`: in series [2], the “log partition 1-octanol / HPLC water” value is reported as -1.49 log10; the “log partition butyl acetate / HPLC water” value is on record as -1.234 log10; the “log partition chloroform / HPLC water” value came to 1.635 log10; the “log partition cyclohexane / HPLC water” value is given as -0.7044 log10. In addition, in series [2], the “log partition dichloromethane / HPLC water, unbuffered, traces of methanol / DMSO” value was found to be 1.509 log10; the “log partition n-hexane / HPLC water” value is -0.8208 log10; the “log partition n-octane / HPLC water” value is recorded as -0.9229 log10; the “log partition n-undecane / HPLC water” value is -0.955 log10. Moreover, in series [2], the “log partition oleylalcohol / HPLC water” value is on record as -1.56 log10 and the “log partition toluene / HPLC water” value is reported as -0.8212 log10.
Turning to `CC(C)(C#N)Nc1nc(Cl)nc(NC2CC2)n1`, in series [1], the “log partition 1-octanol / HPLC water” value was determined as 2.353 log10; the “log partition butyl acetate / HPLC water” value came to 1.721 log10; the “log partition chloroform / HPLC water” value came out at 2.761 log10; the “log partition cyclohexane / HPLC water” value is recorded as -0.1053 log10. In series [1], the “log partition dichloromethane / HPLC water, unbuffered, traces of methanol / DMSO” value is 2.268 log10; the “log partition n-hexane / HPLC water” value was -0.13 log10; the “log partition n-octane / HPLC water” value is given as 0.2329 log10; the “log partition n-undecane / HPLC water” value is -0.4376 log10. Further, in series [1], the “log partition oleylalcohol / HPLC water” value came out at 1.837 log10 and the “log partition toluene / HPLC water” value was found to be 1.234 log10.
